Assay results reported in patent US20220403431A1, “GLYCOMINIMIZED BACTERIAL HOST CELLS” (INBIOSE N.V., priority 2020, published 2022).

Legend:
[1] = tested on: glycominimized (GM) E. coli strain; test: Osmotic stress sensitivity assay, GM strain compared to WT strain; format: cell-based, Escherichia coli K-12 MG1655; conditions: minimal medium
Protocol: Cells were cultured in Greiner Bio-One (Vilvoorde, Belgium) polystyrene F-bottom 96 well plates using the defined medium described above and inoculated 1% from precultures, which were grown in a carbon limiting 2.2 g/L glucose H2O defined medium variant. For the minimum inhibitory concentration (MIC) determination and osmotic stress sensitivity experiments, antibiotics resp. salts were supplemented to the medium in a 100 mL volumetric flask and subsequently filter sterilized using a […] Corning filter system. Each strain was grown in multiple wells of the 96-well plate as biological replicates. These final 96-well culture plates were then incubated at 30° C. on an orbital shaker at 800 rpm for 72h, or longer
The maximal growth rate (Max) was calculated based on the observed optical densities at 600 nm using the R package grofit.
To test the osmotic stress sensitivity of an E. coli strain, a concentration array of KCl, NaCl and sucrose was applied, and growth of the strain recorded. The growth rate was calculated and plotted in function of the concentration of each solute as well as of the osmotic pressure. The osmotic pressure π is calculated as π=i*C*R*T whereby i is the dimensionless Van't Hoff index, C the concentration of the solute (mol/L), R the ideal gas constant and T the temperature (K). For salts that dissociate in water, the Van't Hoff index is the sum of all ions originating from one molecule.
Since the semi-permeable membrane of the GM strain is severely altered compared to that of the WT strain, the osmotic sensitivity of both strains was compared toward KCl, NaCl and sucrose.

[2] = tested on: glycominimized (GM) E. coli strain; test: Growth rate and MIC in minimal medium with increasing antibiotic concentrations, GM strain compared to WT strain; format: cell-based, Escherichia coli K-12 MG1655
Protocol: Cells were cultured in Greiner Bio-One (Vilvoorde, Belgium) polystyrene F-bottom 96 well plates using the defined medium described above and inoculated 1% from precultures, which were grown in a carbon limiting 2.2 g/L glucose H2O defined medium variant. For the minimum inhibitory concentration (MIC) determination and osmotic stress sensitivity experiments, antibiotics resp. salts were supplemented to the medium in a 100 mL volumetric flask and subsequently filter sterilized using a 0,22 m Corning filter system. Each strain was grown in multiple wells of the 96-well plate as biological replicates. These final 96-well culture plates were then incubated at 30° C. on an orbital shaker at 800 rpm for 72h, or longer
Cell density of the cultures was frequently monitored by measuring optical density at 600 nm (Implen Nanophotometer NP80, Westburg, Belgium) or with a Spark 1OM microplate reader (Tecan, Switzerland).
The minimum inhibitory concentration (MIC) was determined as the lowest concentration of an antibiotic where the growth rate was less or equal than 10% of the growth rate when no antibiotic was added.
In this experiment, the growth rate was measured for both the wildtype and the GM strain when grown in media containing increasing antibiotic concentrations.

[3] = at 5 g/L concentrations of the salt solutes

Structure (SMILES): [Cl-].[K+] [KCl]
- osmotic sensitivity of the GM strain compared to the WT strain (relative specific growth rate, FIG. 2) [1, 3]: equally sensitive

Structure (SMILES): [Cl-].[Na+] [NaCl]
- osmotic sensitivity of the GM strain compared to the WT strain (relative specific growth rate, FIG. 2) [1, 3]: equally sensitive

Structure (SMILES): CC[C@H]1OC(=O)[C@H](C)[C@@H](O[C@H]2C[C@@](C)(OC)[C@@H](O)[C@H](C)O2)[C@H](C)[C@@H](O[C@@H]2O[C@H](C)C[C@H](N(C)C)[C@H]2O)[C@](C)(O)C[C@@H](C)C(=O)[C@H](C)[C@@H](O)[C@]1(C)O [erythromycin]
- minimum inhibitory concentration (MIC), GM strain vs WT strain ([2]; MIC = lowest concentration where growth rate is less or equal than 10% of growth rate without antibiotic, both strains compared): similar
- sensitivity of the GM strain to the antibiotic compared to the WT strain (relative specific growth rate, FIG. 1) ([2]; minimal medium, increasing antibiotic concentrations, GM vs WT strain): similarly sensitive

Structure (SMILES): OC[C@H]1O[C@@](CO)(O[C@H]2O[C@H](CO)[C@@H](O)[C@H](O)[C@H]2O)[C@@H](O)[C@@H]1O [sucrose]
- osmotic sensitivity of the GM strain compared to the WT strain (relative specific growth rate, FIG. 2) ([1]; up till 64 g/L sucrose): equally sensitive
